The record followed here is ChEMBL document CHEMBL1201862, “PubChem BioAssay data set” (2004).

SMILES strings stand for the structures.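 Tested at 5 concentrations; 48 h exposure; 96-well plates; endpoints linearly interpolated, else capped at highest concentration. GI50 = concentration required for 50% inhibition of growth.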 Active and inactive are the calls of the source. Cut-off read from the data, not from the text of the source: active = GI50 up to about 1.1 µM and inactive = higher.

Test systems include SNB-75; NCI-H522; HCT-116; NCI-H23; OVCAR-8; EKVX; COLO 205; NCI/ADR-RES; NCI-H460; UO-31; T47D; NCI-H226; HOP-92; HCC 2998; SF-539; ACHN; LOX IMVI; BT-549; CAKI-1; MDA-MB-435.
Test in all cases: inhibition of tumour cell growth, NCI panel, 48 h

Turning to `O=c1c2ccccc2n2nnc3ccc(NCCCNCCNCCCNc4ccc5nnn6c7ccccc7c(=O)c4c56)c1c32`, the GI50 in the assay with SNB-75 is 7.89 µM (inactive); in the assay on NCI-H522 it was 0.234 µM (active); in the assay on HCT-116, 0.207 µM (active); in the assay on NCI-H23 it was 3.83 µM (inactive); with OVCAR-8 it was 1.28 µM (inactive); in the assay with EKVX, 7.03 µM (inactive). In addition, the GI50 in the assay with COLO 205 was 1.39 µM (inactive); in the assay with NCI/ADR-RES it was 12.6 µM (inactive); in the assay on NCI-H460 it was 0.505 µM (active); with UO-31, 2.86 µM (inactive); in the assay on T47D, > 37.4 µM (inactive); in the assay on NCI-H226, 0.005 µM (active). Further, the GI50 in the assay with HOP-92 is > 10.6 µM (inactive); in the assay with HCC 2998 it was 0.308 µM (active); in the assay on SF-539, 0.724 µM (active); in the assay on ACHN, 0.986 µM (active); with LOX IMVI it was 0.566 µM (active); with BT-549 it was 7.36 µM (inactive). Besides, the GI50 with CAKI-1 was 3.86 µM (inactive).
Regarding `O[C@@H]1C[C@H](Cl)c2c(Cl)sc(Cl)c21`, the GI50 in the assay with SNB-75, in the assay with NCI-H522, with HCT-116, with NCI-H23, in the assay on OVCAR-8 and in the assay with EKVX was > 100 µM (inactive) throughout. Besides, the GI50 in the assay on COLO 205 is > 100 µM (inactive); in the assay on NCI/ADR-RES, > 100 µM (inactive); with NCI-H460 it was > 100 µM (inactive); in the assay with UO-31, > 100 µM (inactive); with T47D, 33.4 µM (inactive); with HCC 2998, > 100 µM (inactive). The GI50 in the assay on SF-539, in the assay on ACHN, in the assay with MDA-MB-435, with LOX IMVI, in the assay on BT-549 and in the assay on CAKI-1 was > 100 µM (inactive) throughout.
Regarding `CC(C)(C)NC(=O)N1N=C(c2ccccc2)C1c1ccccc1` (stereo not given), the GI50 in the assay with SNB-75 was 87.1 µM (inactive); in the assay on NCI-H522, 19.6 µM (inactive); in the assay with HCT-116, 19.7 µM (inactive); in the assay with NCI-H23, 35.9 µM (inactive); with OVCAR-8, 40.2 µM (inactive); with EKVX it was 42.6 µM (inactive). Moreover, the GI50 with COLO 205 was 35.7 µM (inactive); in the assay with NCI/ADR-RES, 35.2 µM (inactive); in the assay with NCI-H460, 41.1 µM (inactive); in the assay on UO-31, 18.2 µM (inactive); with T47D it was 42.7 µM (inactive); in the assay on NCI-H226 it was 48.4 µM (inactive). The GI50 is 22.3 µM (inactive) in the assay on HOP-92; > 100 µM (inactive) in the assay with HCC 2998; 22.1 µM (inactive) with SF-539; 34.5 µM (inactive) in the assay with ACHN; 35.7 µM (inactive) with LOX IMVI; 29.9 µM (inactive) in the assay on BT-549. Also, the GI50 with CAKI-1 is 26.4 µM (inactive).
Regarding `Cc1ccc(S(=O)(=O)NC(=O)NC(Cc2ccc(O)cc2)C(=O)O)cc1` (stereo not given), the GI50 in the assay on SNB-75, in the assay on NCI-H522, in the assay with HCT-116, with NCI-H23, in the assay on OVCAR-8 and with COLO 205 was > 100 µM (inactive) throughout. The GI50 in the assay on NCI/ADR-RES, in the assay with NCI-H460, in the assay with UO-31, in the assay on T47D, in the assay on HOP-92 and in the assay with SF-539 was > 100 µM (inactive) throughout. In addition, the GI50 with LOX IMVI and with BT-549 was > 100 µM (inactive) in each case.
